Five compounds from patent US4980349A, “Sulphonamides derived from diarylmethanes, the processes for preparing them and pharmaceutical compositions containing them” (SANOFI, priority 1986, dated 1990) can be followed below.

Entries after “also recorded” stand apart in the source; their conditions may differ. Read-outs that look alike come from different tables or passages of the source. A value given as a limit tells only on which side of the number the result lay.

For experiment [1], the system named is foreign-body (sponge) granuloma in rats. The experiment in a line: Experimental granuloma induced by foreign body, histological study. The class given is in vivo, Wistar rats. The settings on record: for histological study of the granuloma: 8 days, Table XI; for histological study of the granuloma (inflammatory connective / granulation tissue): second experiment, day 8, Table XIa.

Another experiment deals with prostacyclin synthetase. Description: PGI2 production in human glomeruli (renal preparation model). The class given is cell-based. The following applies: arachidonic acid 5 ug/ml. The protocol: Human glomeruli synthesize both thromboxanes, via thromboxane synthetase, and prostaglandins, via prostacyclin synthetase. The experiment consists in stimulating glomerular cells with arachidonic acid (5 ug/ml) and in assaying radioimmunologically the amount of thromboxane B2 (TXB2) and prostacyclin (PGI2) produced in the presence of increasing concentrations of test products (10^-6 M to 5×10^-5 M).
As for the previous model, the results are expressed as IC50 in comparison with a control suspension.

For experiment [2], the system named is pain threshold of brewer's yeast inflamed rat hind foot. Description: Randall and Sellitto's test (analgesic activity). Type of experiment: in vivo. The settings on record: for change in vivo at 25 mg/kg: 25 mg/kg oral; for change in vivo at 25 mg/kg / change in vivo at 50 mg/kg / change in vivo at 100 mg/kg: read-out: percentage increase in the mean pain threshold; for change in vivo at 50 mg/kg: 50 mg/kg oral; for change in vivo at 100 mg/kg: 100 mg/kg oral; for ED50: po, analgesia, read-out: 50% active dose. The essentials:
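Rats had 0.1 ml 20% brewer's yeast suspension injected under the hind-foot plantar aponeurosis; compounds dosed orally by stomach tube 1 h before yeast. Pain threshold was the pressure eliciting foot withdrawal, read at the 4–6 h plateau; result is % increase in mean threshold versus untreated controls, 10 rats per group.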

Experiment [3] concerns biosynthesis of leukotrienes B4 (LTB4), human polymorphonuclear leukocytes. The experiment in a line: Biosynthesis of LTB4, isomers and oxidized metabolites in human polymorphonuclear leukocytes. Type of experiment: cell-based. The settings on record: Leukocyte. The method in brief: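 Human polymorphonuclear leukocytes (5×10^6, used within 6 h of blood draw) preincubated 10 min at 37° C. with test product at 40 μM in DMSO, stimulated with 10 μM ionophore A 23187 in PBS pH 7.4. LTB4, its isomers and oxidized metabolites quantified by HPLC at 269 nm against PGB2 internal standard, as % inhibition or % increase.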

In experiment [4] the test system is foreign-body (sponge) granuloma in rats. Description: Experimental granuloma induced by foreign body, weight of the granulomas. The following applies: Rattus norvegicus, po, 240 h, 10 days after implantation, Table XIb, read-out: decrease in the weight of the granulomas. Type of experiment: in vivo, Wistar rats. The protocol:
This test consists in studying the subacute cellular phase which is developed in the 8 days which follow the implantation of a foreign body, a sponge of non-resorbable plastic, in the dorsal subcutaneous connective tissue in rats.
The animals used are Wistar rats weighing 120-140 g and of the same origin, maintained under the same conditions of housing throughout the treatment (8 days).
The compounds of the invention are administered orally, in a gum suspension, in the morning in a fasted state, using an oesophageal tube.
In this experiment, on the one hand a histological study of the granulomas is performed by sampling on day 8 (results recorded in Table XIa), and on the other hand a study of the weight of the granulomas was performed 10 days after the implantation (results recorded in Table XIb).

Experiment [5] deals with rat hind foot kaolin-induced arthritis. The experiment in a line: Kaolin-induced arthritis test, second experiment, acute phase (volume of the foot at the 8th hour). Type of experiment: in vivo. The following applies: po, 8 h, Table IXa; for change in vivo at 25 mg/kg / change in vivo at 50 mg/kg / change in vivo at 100 mg/kg: 8th hour, read-out: percentage significant decrease in the volume of the treated foot; for ED50: foot volume, read-out: 50% active dose. The protocol: The […] of 0.05 ml of a sterile 10% strength suspension of kaolin into the metatarsal flexor sheath of the hind foot of a rat initially induces an oedematous reaction. An inflammatory arthritis then forms.
The early oedematous reaction appears from the first hour, and reaches its maximum between the fourth hour and the sixth hour. This is the manifestation of interest. The assessment of the volume of the foot enables the action of substances on the oedematous reaction to be studied. The measurements are carried out using a Giono and Chevilard plethysmometer.
The test products are administered orally (stomach tube) one hour before the injection of the kaolin.
In a second experiment, a more elaborate study was performed in order to ascertain the effect of the products, on the one hand on the acute phase of the inflammatory reaction (measured by the volume of the foot at the 8th hour), and on the other hand on the chronic phase (activity measured by the weight of the foot at the 12th hour).
As in the previous experiment, ketoprofen was used as the comparative product:
The results are expressed as a percentage significant decrease in the volume of the treated foot compared with the controls.

Where [6] appears, read: first experiment, read-out: Isomers of LTB4: percentage inhibition (+ : percentage increase in the production).
The mark [7] stands for this setting: first experiment, read-out: LTB4: percentage inhibition (+ : percentage increase in the production).
The mark [8] stands for this setting: first experiment, read-out: Oxidized metabolites of LTB4: percentage inhibition (+ : percentage increase in the production).
Where [9] appears, read: second experiment, read-out: Percentage inhibition of LTB4 formation.

`O=C(O)CCCCCCCCCCNS(=O)(=O)c1ccc(Cl)cc1C(=O)c1ccccc1` [Compound 1572, 11-(2-benzoyl-4-chlorobenzenesulphonamido)undecanoic acid]: the entries for the “histological study of the granuloma” value in experiment [1] (50 mg/kg oral) and in experiment [1] (100 mg/kg oral) were “anti-inflammatory activity is exhibited” and “distinct”, respectively. In the experiment on prostacyclin synthetase, this compound gave an IC50 of 100 µM. In experiment [2] (first experiment, Table XII), the change in vivo at 25 mg/kg is 18%. Also, the change in vivo at 50 mg/kg in experiment [2] (first experiment, Table XII) came out at 30%. The change in vivo at 100 mg/kg in experiment [2] (first experiment, Table XII) is 55%. Also, the inhibition at 40 µM in experiment [3] (setting [6]) turned out to be 100%; in experiment [3] (setting [7]), 84%; in experiment [3] (setting [8]) it was 90%.
`O=C(O)CCCCCCCCCCNS(=O)(=O)c1ccc(Cl)cc1C(=O)c1ccccc1Cl` [Compound 1574, 11-[2-(2-chlorobenzoyl)-4-chlorobenzenesulphonamido]undecanoic acid]: the “histological study of the granuloma (inflammatory connective / granulation tissue)” value in experiment [1] is recorded as “very distinct rarefaction”. Besides, the change in vivo at 25 mg/kg in experiment [4] is -48%; in experiment [2] (second experiment, Table XIIa), 45%; in experiment [5], -60 ± 6%. The change in vivo at 50 mg/kg in experiment [4] is -50%; in experiment [2] (second experiment, Table XIIa), 50%; in experiment [5], -65 ± 6%. The change in vivo at 100 mg/kg in experiment [4] is -55%; in experiment [2] (second experiment, Table XIIa), 50%; in experiment [5], -68 ± 5%. For the same compound, half-maximal inhibition in the experiment with prostacyclin synthetase (IC50) required 100 µM. Besides, the ED50 in experiment [2] (second experiment, Table XIIa) came out at 50 mg/kg; in experiment [5] it was 25 mg/kg. In addition, the inhibition at 40 µM in experiment [3] (setting [6]) came out at 100%; in experiment [3] (setting [7]), 95%; in experiment [3] (setting [8]), 100%; in experiment [3] (setting [9]) it was 95%.
For the compound `O=C(O)CCCCCCCCCCCNS(=O)(=O)c1ccc(Cl)c(C(=O)c2ccccc2)c1` [Compound 1736, 12-(3-benzoyl-4-chlorobenzenesulphonamido)dodecanoic acid], the “histological study of the granuloma (inflammatory connective / granulation tissue)” value in experiment [1] is on record as “Very distinct slowing in the formation”. Further, in experiment [4], the change in vivo at 25 mg/kg was -48%, the change in vivo at 50 mg/kg was -52% and the change in vivo at 100 mg/kg is -55%. For the same compound, the IC50 with prostacyclin synthetase was more than 50 µM. Moreover, in experiment [2] (second experiment, Table XIIa), the change in vivo at 25 mg/kg came out at 52%, the change in vivo at 50 mg/kg amounted to 58%, the change in vivo at 100 mg/kg worked out at 60% and the ED50 is 25 mg/kg. Also, in experiment [5], the change in vivo at 50 mg/kg was -50 ± 5%, the change in vivo at 100 mg/kg was -55 ± 5% and the ED50 was found to be 50 mg/kg. In experiment [3] (setting [9]), the inhibition at 40 µM was determined as 100%.
With `O=C(O)CCCCCCCCCCNS(=O)(=O)c1ccc(Cl)cc1C(O)c1ccccc1Cl` (stereo not drawn) [Compound 1796], the “histological study of the granuloma (inflammatory connective / granulation tissue)” value in experiment [1] is “only slightly inflammatory”. For the same compound, in experiment [4], the change in vivo at 25 mg/kg is -50%, the change in vivo at 50 mg/kg was -55% and the change in vivo at 100 mg/kg is -60%. Also, the IC50 with prostacyclin synthetase is 50 µM. For the same compound, in experiment [2] (second experiment, Table XIIa), the change in vivo at 25 mg/kg worked out at 50%, the change in vivo at 50 mg/kg came out at 55%, the change in vivo at 100 mg/kg was determined as 58% and the ED50 was 25 mg/kg. In addition, in experiment [5], the change in vivo at 25 mg/kg is -50 ± 5%, the change in vivo at 50 mg/kg was -55 ± 5%, the change in vivo at 100 mg/kg was -60 ± 5% and the ED50 was 25 mg/kg. Besides, the inhibition at 40 µM in experiment [3] (setting [9]) came out at 100%.
On to `O=C(O)CCCCCCCCCCNS(=O)(=O)c1ccc(Cl)cc1Cc1ccccc1Cl` [Compound 1797], for which the “histological study of the granuloma (inflammatory connective / granulation tissue)” value in experiment [1] is “Granuloma poorly developed; also recorded: slightly inflammatory”. Further, in experiment [4], the change in vivo at 25 mg/kg is -50%, the change in vivo at 50 mg/kg was -55% and the change in vivo at 100 mg/kg was -60%. In addition, the half-maximal inhibitory concentration (IC50) in the experiment with prostacyclin synthetase is more than 50 µM. Further, in experiment [2] (second experiment, Table XIIa), the change in vivo at 25 mg/kg came out at 50%, the change in vivo at 50 mg/kg is 55% and the change in vivo at 100 mg/kg worked out at 58%. Besides, in experiment [5], the change in vivo at 25 mg/kg was -50 ± 5%, the change in vivo at 50 mg/kg is -55 ± 5%, the change in vivo at 100 mg/kg was -60 ± 5% and the ED50 came to 25 mg/kg. In addition, the inhibition at 40 µM in experiment [3] (setting [9]) stood at 100%.
